Results taken from patent US20210386367A1, “DEVICES AND SYSTEMS FOR GASTROINTESTINAL MICROBIOME DETECTION AND MANIPULATION” (Progenity, Inc., priority 2018, published 2021).
Converted amounts (≈) assume the structure as drawn.

Columns and labels:
[1] = system: Streptococcus spp. spontaneous mutants; assay: organism not typed; type: cell-based
Protocol: Select isolates were subcultured onto agar containing drug at the selection concentration, were identified by MALDI, and were frozen for broth microdilution MIC testing as described below.
To determine whether colonies growing on drug selection plates had elevated MIC values to the selecting antibiotic, susceptibility testing by broth microdilution was conducted on isolated mutants following methodology recommended by CLSI (1), (2), and (3) “Performance Standards for Antimicrobial Susceptibility Testing; Twenty-Eighth Informational Supplement.,” CLSI document M100-S28, 2018.
All wells in columns 2 through 12 of a standard 96-well microdilution plate (Costar 3795) were filled with 150 μL of the appropriate diluent. Then, 300 μL of the test agents were added to the wells of column 1 of the plates at […] the highest final concentration to be tested. Serial two-fold dilutions were made across the rows through column 11 using the Biomek 2000. The wells of column 12 contained no drug and served as the growth control wells. This plate served as the “mother plate” from which selected MIC assay plates or “daughter plates” were made.
2 μL of drug solution from each well of a mother plate was added to each corresponding well of the daughter plate in a single step. A standardized inoculum of each aerobic test organism was prepared per CLSI methods to equal a 0.5 McFarland standard, followed by a dilution of 1:20 in MHB II. The plates were then inoculated with 10 μL of the diluted inoculum using the Biomek 2000 from low to high drug concentration, resulting in a final concentration of approximately 5×10^5 CFU/mL. An un-inoculated plate was incubated for the purpose of assessing solubility of the drug in the test media.
The plates for the aerobic tests were stacked 3-4 high, covered with a sterile lid on the top plate, and incubated aerobically at 35° C. for 18-20 hr. The MIC was recorded as the lowest concentration of drug that inhibited visible growth of the organism.

[2] = system: Streptococcus spp. spontaneous mutants; conditions: S. pneumoniae ATCC 49619; CLSI QC range shown in parentheses; cited from earlier work

SMILES: CC[C@H]1OC(=O)[C@H](C)[C@@H](O[C@H]2C[C@@](C)(OC)[C@@H](O)[C@H](C)O2)[C@H](C)[C@@H](O[C@@H]2O[C@H](C)C[C@H](N(C)C)[C@H]2O)[C@](C)(O)C[C@@H](C)CN(C)[C@H](C)[C@@H](O)[C@]1(C)O [AZI]
- MIC ([1]; S. agaloctiae ATCC 13813, selected on rifaximin 4X MIC, Colony A): 0.015 mg/L (≈ 0.02 µM)
- MIC ([1]; S. agaloctiae ATCC 13813, selected on rifaximin 4X MIC, Colony B): 0.015 mg/L (≈ 0.02 µM)
- MIC ([1]; S. agaloctiae ATCC 13813, selected on rifaximin 8X MIC, Colony A): 0.015 mg/L (≈ 0.02 µM)
- MIC ([1]; S. agaloctiae ATCC 13813, selected on rifaximin 8X MIC, Colony B): 0.015 mg/L (≈ 0.02 µM)
- MIC ([1]; S. agaloctiae ATCC 13813 Parent): 0.015 mg/L (≈ 0.02 µM)
- MIC ([1]; S. pneumoniae ATCC 49619, selected on rifaximin 4X MIC, Colony A): 0.03 mg/L (≈ 0.0401 µM)
- MIC ([1]; S. pneumoniae ATCC 49619, selected on rifaximin 4X MIC, Colony B): 0.03 mg/L (≈ 0.0401 µM)
- MIC ([1]; S. pneumoniae ATCC 49619, selected on rifaximin 8X MIC, Colony A): 0.03 mg/L (≈ 0.0401 µM)
- MIC ([1]; S. pneumoniae ATCC 49619, selected on rifaximin 8X MIC, Colony B): 0.03 mg/L (≈ 0.0401 µM)
- MIC ([1]; S. pneumoniae ATCC 49619 Parent): 0.06 mg/L (≈ 0.0801 µM)
- MIC ([1]; S. pyogenes ATCC 49399, selected on rifaximin 4X MIC, Colony A): 0.06 mg/L (≈ 0.0801 µM)
- MIC ([1]; S. pyogenes ATCC 49399, selected on rifaximin 4X MIC, Colony B): 0.06 mg/L (≈ 0.0801 µM)
- MIC ([1]; S. pyogenes ATCC 49399, selected on rifaximin 8X MIC, Colony A): 0.06 mg/L (≈ 0.0801 µM)
- MIC ([1]; S. pyogenes ATCC 49399, selected on rifaximin 8X MIC, Colony B): 0.06 mg/L (≈ 0.0801 µM)
- MIC ([1]; S. pyogenes ATCC 49399 Parent): 0.03 mg/L (≈ 0.0401 µM)
- MIC, CLSI QC range [2]: (0.06-0.25) μg/mL
